Entries after “also recorded” stand apart in the source; their conditions may differ.
What was measured:
[1] = system: polyoma virus transformed BHK21/c13 cells, clone S100T1; assay: Clonal test: clonal growth of S100T1 cells in soft agar (Exp 2, 4, 6, 15, 16); assay type: cell-based, hamster; settings: for Clonal growth: Exp 15, plate read the 5th day
Method: The clonal test comprises: • 1. seeding cells in soft agar optionally containing growth factor(s); • 2. handling or incubation of special gels (e.g. ultra low gelling temperature agarose), including the production of cell density gradients. • 3. incubating in suitable temperature and atmosphere and; • 4. regular monitoring of the cells and development of clones.
The clonal test can be directed in fluid medium or in soft agar medium. Usually only transformed cells will form clones in soft agar.
After seeding and mixing, the tubes were placed in the refrigerator for about 1 hour to consolidate the ultra low melting point agarose.
120000 S100T1 cells of a polyoma virus transformed BHK21/c13 cell line, were seeded in 1 ml soft agar medium in Falcon 50 ml centrifuge tubes. […] On the top of the agar layer 0.5 ml fluid medium was added.
Agar cultures were prepared in wells of 24 well Falcon tissue culture plate. […] Insulin (Actrapid, Novo) was added in a concentration of 0.1 i.u./ml to BHK21/c13 cell cultures only.
The cells were all single cells. Each well received 32000 cells (Table 4). Plate: 24 wells Falcon tissue culture plate received a bottom layer composed as in Table 3:
The cells were all single cells.
The wells contained two layers, each of 0.3 ml agar.
The agarose was added to double distilled water and solved by heating in micro oven.

[2] = system: polyoma virus transformed BHK21/c13 cells, line S100T1; assay: Collocation inhibition test: clonal growth in sparsely and densely seeded areas of a cell density gradient of S100T1 cells in soft agar (Exp 13, 17, 19-26); settings: for Clonal growth, H: high density area of cell gradient, High / Clonal growth, L: low density area of cell gradient, High / Clonal growth, H: high density area of cell gradient, Low / Clonal growth, L: low density area of cell gradient, Low / Clonal growth, H: high density area of cell gradient, Medium / Clonal growth, L: low density area of cell gradient, Medium: 4-OH-OPB analogues, S100T1 in soft agar; for Clonal growth, H: high density area of cell gradient, Medium / Clonal growth, L: low density area of cell gradient, Medium: medium concentration; for Clonal growth read on the 3rd day after seeding / Clonal growth read on the 6th day after seeding: Exp 17; for Inhibition of clonal growth of sparsely seeded cells: 117000 S100T1 cells/well; for Compounds with significant inhibition of clonal growth of sparsely seeded cells: Exp 24, 180000 S100T1 cells/well;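 for Clonal growth, L low density area of cell gradient, High: grades rise with clonal growth and minus or plus-minus means none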;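 for Clonal growth, L low density area of cell gradient, Low: grades rise with clonal growth and minus or plus-minus means none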;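 for all read-outs here: soft agar cultures in 24-well plates with a cell density gradient in the top layer, compounds applied from DMSO stocks, clonal growth scored in sparse versus dense areas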
Method: The cells should be grown in a top agar layer to avoid growth on the bottom surface. […] Both densely seeded and sparsely seeded areas were photographed.
Cells: The polyoma virus transformed offspring of BHK21/c13, S100T1, was grown on 75 cm^2 flasks on Eagles medium with 5% foetal calf serum. […] Foetal calf serum (0.7 ml) was added to each harvest. After low speed centrifugation the supernatant was discarded and the cells were dispersed in 1 ml FBS.
The concentration of ultra low gelling temperature agarose (Sigma) of the top agar layer with cells was also 0.8%. […] The addition of cells was performed at the same side of the wells in order to create similar cell density gradients. Finally the top layer agar was consolidated in the refrigerator.
After that it was incubated at 37 degrees in 5% CO2 atmosphere.
Agar cultures were prepared in Falcon 24 well tissue culture plate. Each well contained two agar layers of 0.3 ml.
Agar cultures were prepared in wells of Falcon 24 well tissue culture plate. Each contained two agar layers of 0.3 ml. […] The medium contained Eagles MEM and 10% foetal bovine serum (FBS).
The compounds were first solved in DMSO in 20 mM concentration and then diluted in medium. The top layer needed 60-90 minutes in the refrigerator for solidification before incubation in 37° C. with 5% CO2 atmosphere.
In this experiment the inhibitor was added to the bottom layer in order to get an easier way for making the cell density gradient. One side of the Falcon 24 well plate was elevated 12 degrees in the refrigerator for 60-90 minutes to solidify the bottom layer in an oblique position When then solidifying the cell containing top soft agar layer in horizontal position, the cell gradient constantly became good across the well. […] Another 90 minutes were spent in the refrigerator to consolidate the soft agar layer with cells in a horizontal position. Both layers contained 0.8% agarose, Eagles MEM and 10% FBS.
Tilting the plate 12 degrees when solidifying the bottom layer with the drug and casting the top layer with cells horizontally made a stable cell gradient.
The indicated compounds were added to soft agar cultures of the polyoma virus transformed cell line S100T1 of BHK21/c13 cells (Table 1). Agar cultures were prepared in wells of a Falcon 24 well tissue culture plate. The wells contained two agar layers of 0.3 ml. […] The bottom medium was identical, but without cells.
The compounds were first solved in DMSO in 20 mM concentration and then diluted in bottom medium. The agar layers needed 60-90 minutes in the refrigerator for consolidation before incubation at 37° C. in 5% CO2 atmosphere.

[3] = Exp 15, 5th day, High conc., μM in wells: No 1 (4-OH—OPB) 20, 2 (Colchicine) 0.1, 3 (Diphenylhydantoin) 100, 4 (Podophyllotoxin) 0.3, 5 (Piroxicam) 50, 6 (Diclofenak) 100, ” = as line above
[4] = Exp 15, 5th day, Low conc., μM in wells: No 1 (4-OH—OPB) 2, 2 (Colchicine) 0.01, 3 (Diphenylhydantoin) 10, 4 (Podophyllotoxin) 0.03, 5 (Piroxicam) 5, 6 (Diclofenak) 10, 7 (Ibuprofen) 100, 8 (Naproxen) 50, 9 (Acetylsalicylic acid) 100, ” = as line above
[5] = High: #1 Colchicine 1, #2 Podophyllotoxin 3, #3 Etoposide 200, #4 4-OH—OPB 6.7 μM in wells, #5 DMSO 29.2 μl
[6] = Low: #1 Colchicine 0.1, #2 Podophyllotoxin 0.3, #3 Etoposide 20, #4 4-OH—OPB 0.67 μM in wells, #5 DMSO 1.16 μl
[7] = Medium: #1 Colchicine 0.3, #2 Podophyllotoxin 0.9, #3 Etoposide 60, #4 4-OH—OPB 2 μM in wells, #5 DMSO 6.8 μl
[8] = Experiment 22, H: area with high cell density, High concentration
[9] = Experiment 22, H: area with high cell density, Low concentration
[10] = Experiment 22, H: area with high cell density, Medium concentration
[11] = Experiment 22, L: area with low cell density, Low concentration
[12] = Experiment 22, L: area with low cell density, Medium concentration
[13] = Summary Table 3 of analogue tests (experiments 22-25), H (high cell density), High concentration
[14] = Summary Table 3 of analogue tests (experiments 22-25), H (high cell density), Low concentration
[15] = Summary Table 3 of analogue tests (experiments 22-25), H (high cell density), Medium concentration
[16] = Summary Table 3 of analogue tests (experiments 22-25), L (low cell density), Low concentration
[17] = Summary Table 3 of analogue tests (experiments 22-25), L (low cell density), Medium concentration
[18] = High conc., μM in wells: No 1 (4-OH—OPB) 20, 2 (Colchicine) 0.1, 3 (Diphenylhydantoin) 100, 4 (Podophyllotoxin) 0.3, 5 (Piroxicam) 50, 6 (Diclofenak) 100, 7 (Ibuprofen) 1000, 8 (Naproxen) 500, 9 (Acetylsalicylic acid) 1000
[19] = Experiment 22, L: area with low cell density, High concentration
[20] = Summary Table 3 of analogue tests (experiments 22-25), L (low cell density), High concentration
[21] = Experiment 24, H: area with high cell density, High concentration, 48 hours
[22] = Experiment 24, H: area with high cell density, Low concentration, 48 hours
[23] = Experiment 24, H: area with high cell density, Medium concentration, 48 hours
[24] = Experiment 24, L: area with low cell density, High concentration, 48 hours
[25] = Experiment 24, L: area with low cell density, Low concentration, 48 hours
[26] = Experiment 24, L: area with low cell density, Medium concentration, 48 hours

| SMILES | Significance [1, 3] | Significance [1, 4] | Clonal growth, H: high density area of cell gradient, High ([2]; high concentration) | Clonal growth, L: low density area of cell gradient, High ([2]; high concentration) | Clonal growth, H: high density area of cell gradient, Low ([2]; low concentration) | Clonal growth, L: low density area of cell gradient, Low ([2]; low concentration) | Clonal growth, H: high density area of cell gradient, Medium [2] | Clonal growth, L: low density area of cell gradient, Medium [2] | Inhibition of clonal growth of sparsely seeded cells ([2]; Exp 22) | Clonal growth [2, 8] | Clonal growth [2, 9] | Clonal growth [2, 10] | Clonal growth [2, 11] | Clonal growth [2, 13] | Clonal growth [2, 14] | Clonal growth [2, 15] | Clonal growth [2, 16] | Clonal growth [2, 17] | Clonal growth [1, 18] | Clonal growth [2, 20] | further results |
| --- | --- | --- | --- | --- | --- | --- | --- | --- | --- | --- | --- | --- | --- | --- | --- | --- | --- | --- | --- | --- | --- |
| CCCCC(C(=O)Nc1ccccc1)C(=O)Nc1ccc(O)cc1 (stereo not drawn) [#4, 2-Butyl-N-(4-hydroxy-phenyl)-N′-phenylmalonamide] | probably | ” | ++ | ((+)) | ++ | ++ | ++ | ++ | smaller effect; also recorded: showed an effect, but even higher concentration was needed than for #6 | ++ | ++ | ++ | ++ | ++ | ++ | ++ | ++ | ++ |  |  | Clonal growth read on the 3rd day after seeding [2, 5]: −; Clonal growth read on the 6th day after seeding [2, 5]: ((+)); Clonal growth read on the 3rd day after seeding [2, 6]: +; Clonal growth read on the 6th day after seeding [2, 6]: +; Clonal growth read on the 3rd day after seeding [2, 7]: −; Clonal growth read on the 6th day after seeding [2, 7]: ((+)); Clonal growth [2, 12]: ++ |
| O=C1N(c2ccccc2)N(c2ccccc2)C(=O)C1(O)CC[S+]([O-])c1ccccc1 (stereo not drawn) [#6, 1,2-diphenyl-4-hydroxy-4-[2-(phenylsulfinyl)ethyl]-3,5-pyrazolidinedione] | ” | probably* | ++ | − | ++ | ++ | ++ | ((+)) | best inhibitor of clonal growth of sparsely seeded cells | ++ | ++ | ++ | ++ | ++ | ++ | ++ | ++ |  | ++ | − | Effect at low concentration ([2]; Exp 22): no effect was observed; Clonal growth [2, 19]: −; Clonal inhibition by 4-OH-OPB analogues, summary of Exp 22-25 ([2]; sparsely seeded areas while densely seeded areas of the same culture showed significant growth): complete inhibition of growth in sparsely seeded areas |
| CCCCC1(O)C(=O)N(c2ccccc2)N(c2ccc(OC)cc2)C1=O (stereo not drawn) [#7, 4-(1-butyl)-4-hydroxy-1-(4-methoxyphenyl)-2-phenyl-3,5-pyrazolidinedione] |  | no | ++ | (+) | ++ | ++ | ++ | ++ | smallest effect; also recorded: might have a small similar effect | ++ | ++ | ++ | ++ | ++ | ++ | ++ | ++ | ++ | − | (+) | Clonal growth [2, 19]: (+); Clonal growth [2, 12]: ++ |
| Cc1ccc(C2(O)C(=O)N(c3ccccc3)N(c3ccccc3)C2=O)cc1 [#8, 1,2-diphenyl-4-hydroxy-4-(4-methylphenyl)-3,5-pyrazolidinedione] |  | ” | ++ | + |  |  | ++ |  |  |  |  |  |  | ++ | +(+) | ++ | +(+) | +(+) | − | + | Compounds with significant inhibition of clonal growth of sparsely seeded cells [2]: None; Clonal growth [2, 21]: +(+); Clonal growth [2, 22]: ++; Clonal growth [2, 23]: ++; Clonal growth [2, 24]: +(+); Clonal growth [2, 25]: +; Clonal growth [2, 26]: +(+) |
| O=C1N(c2ccccc2)N(c2ccccc2)C(=O)C1(O)Cc1ccccc1 [#9, 4-benzyl-1,2-diphenyl-4-hydroxy-3,5-pyrazolidinedione] |  | ” | ++ | + | ++(+) |  | +++ | + |  |  |  |  |  | ++ | ++(+) | +++ | +(+) | + | − | + | Clonal growth ([1]; Low conc., μM in wells: No 1 (4-OH—OPB) 2, 2 (Colchicine) 0.01, 3 (Diphenylhydantoin) 10, 4 (Podophyllotoxin) 0.03, 5 (Piroxicam) 5, 6 (Diclofenak) 10, 7 (Ibuprofen) 100, 8 (Naproxen) 50, 9 (Acetylsalicylic acid) 100): +; Compounds with significant inhibition of clonal growth of sparsely seeded cells [2]: None; Clonal growth [2, 21]: ++; Clonal growth [2, 22]: ++(+); Clonal growth [2, 23]: +++; Clonal growth [2, 24]: +; Clonal growth [2, 25]: +(+); Clonal growth [2, 26]: + |
| CC(=O)Oc1ccccc1C(=O)O [Acetylsalicylic acid] |  |  |  |  |  |  |  |  |  |  |  |  |  |  |  |  |  |  |  |  | Effect on clonal growth at 100 μM ([1]; Exp 15, 32000 S100T1 cells/well): possibly inhibited significantly, but not completely; Effect on clonal growth at 1000 μM ([1]; Exp 15, 32000 S100T1 cells/well, 30 μl DMSO in the well might be toxic): the inhibition is complete; Significance of results ([1]; Exp 16, read after 14 days, Acetylsalicylic acid No 10, ca. 223 μM): probable; Colony inhibiting activity for dosage within a range that might be therapeutic ([1]; Exp 16, about 40000 S100T1 cells/well): probably had a colony inhibiting activity; Significance ([1]; Exp 16 day 14, Acetylsalicylic acid No 10, 215 μM): probable; Growth ([1]; Exp 16 day 14, Acetylsalicylic acid No 10, 215 μM in wells): (+)); Growth ([1]; Exp 16 day 14, Acetylsalicylic acid No 10, 464 μM in wells): (+)); Significance ([1]; Exp 16 day 14, Acetylsalicylic acid No 10, 464 μM, doubtful because the solvent DMSO might be inhibiting): doubtful*; Significance ([1]; Exp 16 day 21, Acetylsalicylic acid No 10, 215 μM): possible; Growth ([1]; Exp 16 day 21, Acetylsalicylic acid No 10, 215 μM in wells): (+); Growth ([1]; Exp 16 day 21, Acetylsalicylic acid No 10, 464 μM in wells): (+)); Significance ([1]; Exp 16 day 21, Acetylsalicylic acid No 10, 464 μM, *see conclusion (DMSO)): doubtful*; Anti-clonal effect, summary of Exp 15 ([1]; S100T1 in soft agar): showed possible clonal inhibition at low; Clonal growth, L low density area of cell gradient, High ([2]; preliminary results, Exp 13-18, 21-26, high concentration): ((+)); Clonal growth, L low density area of cell gradient, Low ([2]; preliminary results, Exp 13-18, 21-26, low concentration): (+); Effect on cell cloning in soft agar ([2]; preliminary results, in words): Possible inhibition of clonal growth |

Reference: patent US20060121449A1, “Method for selection of compounds which inhibit clonal cell growth and use thereof” (priority 2002, published 2006)
